Read-outs that look alike come from different tables or passages of the source.

Data set [1] has as its target T1, APH(2″)-IVa (Enterococcus casseliflavus, UniProt O68183). Briefly: Isothermal titration calorimetry of aminoglycoside binding. The procedure:
The enzyme was extensively dialyzed against buffer containing 50 mM Tris–HCl at pH 7.5, 40 mM KCl, 1 mM MgCl2 and ligand solutions were prepared at 5 mM in the final dialysate with readjusting pH to 7.5. The enzyme was used at a final concentration of 150 μM. ITC experiments were carried out at 25 °C in a VP-ITC calorimeter (MicroCal, GE Healthcare). Titrations consisted of 40 injections of 5 μL of ligand every 300 s. The cell stirring speed was 300 rpm. To obtain reliable dissociation constants, the c-value, a unitless parameter obtained by the multiplication of the association constant and the total concentration of ligand binding sites, was kept between 1.8 and 100 for all titrations. Control runs were performed by titrating ligands to buffer, and the resulting background signal was subtracted from the corresponding experimental data. Experiments were carried out at 1 mM free Mg^2 +.
Binding and thermodynamic parameters Ka (association constant), ΔH (enthalpy change) and stoichiometry were obtained by nonlinear least-squares fitting of experimental data using a single-site binding model of the Origin software package (version 5.0) provided with the instrument. The free energy of binding (ΔG) and entropy change at 25 °C (ΔS) were obtained using the following equations:(1) ΔG=–RTlnKa (2) ΔG=ΔH–TΔS
The experiments were performed in triplicate (except with G418 and kanamycin B, in duplicate) and the error values given in the tables are standard deviations.

For data set [2], the target named is T1, APH(2″)-IVa. The note with it: for phosphotransferase activity: confirmed at 5 μM APH(2″)-IVa, 2.5 mM ATP; for Kd/Km: ratio of ITC Kd to steady state Km; for Km / kcat: saturating MgATP (2.5 mM), aminoglycoside 0 to 100 μM, 25 °C, pH 7.5; for Km: na = no detectable activity; for kcat: na = no detectable activity (< 0.001 s^− 1), enzyme up to 5 μM. As for the experimental part:
(§1) Unless otherwise stated, kinetic experiments were carried out in a buffer that contained 50 mM Tris, 40 mM KCl, 1 mM free MgCl2 adjusted to pH 7.5 with HCl at 25 °C. In the case of experiments with CaATP, the buffer was MgCl2-free.
Steady state kinetics were carried out in thermostatically controlled beakers as already described. Unless otherwise stated, the enzyme concentration was 0.5 μM in the presence of various concentrations of aminoglycoside (5 to 100 μM). […] At regular intervals, a volume of 80 μL of the reaction mixture was sampled from the beaker and mixed in a tube containing 40 μL of perchloric acid at 10%. The precipitated protein was then removed by centrifugation at 4 °C, 20 min at 19,000 g. ADP and ATP were separated by HPLC (Waters) on an anion-exchange column (SAX-Partisphere, AIT France). The mobile phase was 200 mM ammonium phosphate–HCl buffer at pH 5.5 and 10% acetonitrile. A 100 μL volume of the quenched reaction mixture was diluted in 900 μL of buffer containing the mobile phase supplemented with 5 N KOH to readjust the pH to 5.5. Quantification of ADP and ATP was obtained by integrating HPLC peaks at 259 nm and their concentrations were reported relative to the enzyme concentration. […] For each injected sample, the concentration of ADP was calculated using the following equation, where [ATP]i is the initial ATP concentration used in the experiment:(3) ADP=ADPpeakarea×ATPi/ADPpeakarea+ATPpeakarea

For data set [3], the system named is APH(2″)-IVa. Further details: method as in Toth et al. [5]. The settings on record: values in brackets, coupled enzyme system; ref Toth et al. [5]; cited from earlier work.
Data set [4] concerns the target T1, APH(2″)-IVa. Briefly: Transient kinetics, rapid quench–flow (total ADP). Format: biochemical. The settings on record: 5 μM APH(2″)-IVa, 500 μM ATP, 100 μM aminoglycoside; for Aburst: ± standard error of fit. The procedure:
as §1
(§2) Transient kinetic experiments were carried out at 25 °C in a QFM-400 quench–flow (Bio-Logic, France) or in a SF-61 DX2 stopped–flow (TgK Scientific, UK). In the quench–flow method, APH(2″)-IVa, pre-incubated with the aminoglycoside, was mixed with ATP in the apparatus. The mixtures were aged for specific times (from 8 ms to several seconds), quenched in 10% perchloric acid and the ADP and ATP measured by HPLC, as described above. Because perchloric acid dissociates all non-covalent complexes, by this method, concentrations in the reaction mixtures of total ADP, that is to say enzyme-bound ADP plus free ADP, are obtained. In the stopped–flow experiments, a free ADP fluorescent biosensor, MDCC-ParM [28], was included in the ATP solution. By this method, concentrations in the reaction mixtures of free ADP only are obtained. Experiments were carried out as previously described for APH(3′)-IIIa.

For data set [5], the target named is T1, APH(2″)-IVa. Briefly: Transient kinetics, stopped–flow with MDCC-ParM ADP biosensor (free ADP). Format: biochemical. The note with it: 5 μM APH(2″)-IVa, 500 μM ATP, 100 μM aminoglycoside, 50 μM MDCC-ParM. As for the experimental part: as §1, §2
Data set [6] concerns CN[C@@H]1[C@@H](O)[C@@H](O[C@@H]2[C@@H](O)[C@H](O[C@H]3OC(CN)=CC[C@H]3N)[C@@H](N)C[C@H]2N)OC[C@]1(C)O. Put plainly: purified protein, by the assay type. The settings on record: other: saturating MgATP (2.5 mM), aminoglycoside 0 to 100 μM, 25 °C, pH 7.5, na = no detectable activity.
Experimental: (§3) Steady state kinetics were carried out in thermostatically controlled beakers as already described [27]. Unless otherwise stated, the enzyme concentration was 0.5 μM in the presence of various concentrations of aminoglycoside (5 to 100 μM). […] Reactions were initiated by adding a saturating concentration of ATP (2.5 mM) in a thermostatically controlled beaker containing APH(2″)-IVa and aminoglycoside. At regular intervals, a volume of 80 μL of the reaction mixture was sampled from the beaker and mixed in a tube containing 40 μL of perchloric acid at 10%. The precipitated protein was then removed by centrifugation at 4 °C, 20 min at 19,000 g. ADP and ATP were separated by HPLC (Waters) on an anion-exchange column (SAX-Partisphere, AIT France). The mobile phase was 200 mM ammonium phosphate–HCl buffer at pH 5.5 and 10% acetonitrile. A 100 μL volume of the quenched reaction mixture was diluted in 900 μL of buffer containing the mobile phase supplemented with 5 N KOH to readjust the pH to 5.5. Quantification of ADP and ATP was obtained by integrating HPLC peaks at 259 nm and their concentrations were reported relative to the enzyme concentration. Concentrations (in the quenched reaction mixtures) between 0.5 and 500 μM of ADP or ATP gave a linear and equivalent OD259 response. For each injected sample, the concentration of ADP was calculated using the following equation, where [ATP]i is the initial ATP concentration used in the experiment:(3) ADP=ADPpeakarea×ATPi/ADPpeakarea+ATPpeakarea
Data set [7] concerns NC[C@H]1O[C@H](O[C@H]2[C@H](O)[C@@H](O[C@H]3O[C@H](CO)[C@@H](O)[C@H](N)[C@H]3O)[C@H](N)C[C@@H]2N)[C@H](N)C[C@@H]1O. Put plainly: purified protein, by the assay type. The note with it: other: saturating MgATP (2.5 mM), aminoglycoside 0 to 100 μM, 25 °C, pH 7.5, na = no detectable activity.
Experimental: as §3
Data set [8] deals with NC[C@H]1O[C@H](O[C@H]2[C@H](O)[C@@H](O[C@H]3O[C@H](CO)[C@@H](O)[C@H](N)[C@H]3O)[C@H](N)C[C@@H]2N)[C@H](N)[C@@H](O)[C@@H]1O. Briefly: purified protein, by the assay type. The note with it: other: saturating MgATP (2.5 mM), aminoglycoside 0 to 100 μM, 25 °C, pH 7.5, na = no detectable activity.
Experimental: as §3

T1 sequence (O68183 entry or part of it): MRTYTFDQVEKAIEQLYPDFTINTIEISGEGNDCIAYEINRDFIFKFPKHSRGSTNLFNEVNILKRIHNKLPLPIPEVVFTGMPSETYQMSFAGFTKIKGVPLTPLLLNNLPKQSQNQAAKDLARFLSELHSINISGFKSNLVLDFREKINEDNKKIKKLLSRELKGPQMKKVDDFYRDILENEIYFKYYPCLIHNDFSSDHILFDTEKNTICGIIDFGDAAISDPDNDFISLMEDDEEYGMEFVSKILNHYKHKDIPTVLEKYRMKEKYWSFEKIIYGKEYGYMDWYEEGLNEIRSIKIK

As for `NCC[C@H](O)C(=O)N[C@@H]1C[C@H](N)[C@@H](O[C@H]2O[C@H](CN)[C@@H](O)[C@H](O)[C@H]2O)[C@H](O)[C@H]1O[C@H]1O[C@H](CO)[C@@H](O)[C@H](N)[C@H]1O` [Amikacin], the Kd (commonly a measure of binding affinity in units of concentration) at APH(2″)-IVa [1] came out at 82.2 ± 8.9 µM. The phosphotransferase activity entry on APH(2″)-IVa [2] is reported as “absence of activity”. Besides, in the data set with APH(2″)-IVa [3], the Km (in general, the substrate concentration at which the rate is half of its maximum) is 98 µM and the kcat entry is “(0.15 ± 0.01) s^− 1”.

`CN[C@@H]1[C@@H](O)[C@@H](O[C@@H]2[C@@H](O)[C@H](O[C@H]3OC(CN)=CC[C@H]3N)[C@@H](N)C[C@H]2N)OC[C@]1(C)O` [Sisomicin]: on APH(2″)-IVa [1], the affinity, expressed as Kd, was 2.3 ± 1.6 µM. Further, on APH(2″)-IVa [2], the Kd/Km turned out to be 0.7. Moreover, on APH(2″)-IVa [4], the kburst is on record as 2.0 ± 0.4 s^− 1, the kss stood at 0.50 ± 0.02 s^− 1 and the Aburst is recorded as 0.48 ± 0.07 mol/mol. At APH(2″)-IVa [5], this compound registered a klag of 1.6 ± 0.1 s^− 1 and a kss of 0.48 ± 0.01 s^− 1.

Take `NC[C@H]1O[C@H](O[C@H]2[C@H](O)[C@@H](O[C@H]3O[C@H](CO)[C@@H](O)[C@H](N)[C@H]3O)[C@H](N)C[C@@H]2N)[C@H](N)[C@@H](O)[C@@H]1O` [Kanamycin B]: at APH(2″)-IVa [1], binding was characterised by a dissociation constant (Kd) of 5.7 ± 1.1 µM. Also, the Kd/Km at APH(2″)-IVa [2] was 0.5.

In the case of `NC[C@@H]1O[C@H](O[C@H]2[C@@H](O)[C@H](O[C@@H]3[C@@H](O)[C@H](N)C[C@H](N)[C@H]3O[C@H]3O[C@H](CO)[C@@H](O)[C@H](O)[C@H]3N)O[C@@H]2CO)[C@H](N)[C@@H](O)[C@@H]1O` [Paromomycin], the Kd at APH(2″)-IVa [1] is 63.6 ± 29 µM. For the same compound, the phosphotransferase activity result at APH(2″)-IVa [2] was “absence of activity”.

Turning to `CNC(C)C1CCC(N)C(OC2C(N)CC(N)C(OC3OCC(C)(O)C(NC)C3O)C2O)O1` (centres unmarked) [Gentamicin], at APH(2″)-IVa [1], the Kd turned out to be 9.7 ± 5 µM. Further, at APH(2″)-IVa [2], the Kd/Km worked out at 2.9, the Michaelis constant (Km) was 3.3 ± 0.6 µM and the kcat is listed as 0.47 ± 0.01 s^− 1.

“APH(2″)-IVa (Enterococcus casseliflavus)”: in data set [6], the Km worked out at 3.5 ± 0.6 µM, the kcat is recorded as 0.73 ± 0.02 s^− 1 and the kcat/Km is reported as 0.209 μM^− 1 s^− 1. In data set [7], the Michaelis constant (Km) turned out to be 13.2 ± 2.2 µM, the kcat is recorded as 1.64 ± 0.08 s^− 1 and the kcat/Km is reported as 0.124 μM^− 1 s^− 1. Also, in data set [8], the Km is 12.5 ± 2.9 µM, the kcat was 1.69 ± 0.11 s^− 1 and the kcat/Km is reported as 0.135 μM^− 1 s^− 1.

Regarding Kanamycin A, the “Kd, fold larger compared to tobramycin” value at APH(2″)-IVa [1] (ITC Kd comparison) is reported as 20 fold. For the same compound, the “steady state rate constant” value on APH(2″)-IVa [2] (0.5 μM APH(2″)-IVa, 100 μM kanamycin A, 100 μM MgATP) is 0.23 s^− 1. Further, on APH(2″)-IVa [2] (0.5 μM APH(2″)-IVa, 100 μM kanamycin A, 200 μM MgATP), the “steady state rate constant” value is reported as 0.37 s^− 1. On APH(2″)-IVa [2] (0.5 μM APH(2″)-IVa, 100 μM kanamycin A, 2 mM CaATP), the “kss, CaATP phosphotransferase activity” value stood at 0.092 s^− 1. Also, the “kss, MgATP phosphotransferase activity” value on APH(2″)-IVa [2] (0.5 μM APH(2″)-IVa, 100 μM kanamycin A, 2 mM MgATP) amounted to 0.84 s^− 1. Also, the “Km, fold lower compared with tobramycin” value at APH(2″)-IVa [2] (in the presence of ATP) was determined as 3.3 fold. Also, on APH(2″)-IVa [2], the Kd/Km is on record as 20.0. In addition, the Kd/Km on APH(2″)-IVa [2] (listed as kanamycin A) amounted to 20. At APH(2″)-IVa [4], this compound had a kburst of 3.4 ± 0.7 s^− 1, a kss of 0.77 ± 0.02 s^− 1 and an Aburst of 0.38 ± 0.04 mol/mol. Besides, on APH(2″)-IVa [5], the klag is listed as 3.4 ± 0.1 s^− 1 and the kss is listed as 0.70 ± 0.01 s^− 1. In addition, in the data set with APH(2″)-IVa [3], the Km is 3.3 µM and the kcat entry is on record as “(0.92 ± 0.01) s^− 1”.

In the case of `NC[C@H]1O[C@H](O[C@H]2[C@H](O)[C@@H](O[C@H]3O[C@H](CO)[C@@H](O)[C@H](N)[C@H]3O)[C@H](N)C[C@@H]2N)[C@H](N)C[C@@H]1O` [Tobramycin], the Kd at APH(2″)-IVa [1] is 3.9 ± 0.6 µM. For the same compound, the “affinity of the apoprotein, times greater than for kanamycin A and for amikacin” value at APH(2″)-IVa [1] (ITC Kd comparison) was 20 times. For the same compound, the Kd/Km at APH(2″)-IVa [2] is recorded as 0.3. At APH(2″)-IVa [4], this compound displayed a kburst of 2.1 ± 0.4 s^− 1, a kss of 1.08 ± 0.02 s^− 1 and an Aburst of 0.44 ± 0.05 mol/mol. On APH(2″)-IVa [5], this compound gave a klag of 3.3 ± 0.1 s^− 1 and a kss of 1.05 ± 0.01 s^− 1. In addition, in the data set with APH(2″)-IVa [3], the Km is 1.5 µM and the kcat entry is “(1.80 ± 0.03) s^− 1”.

Regarding `CN[C@@H]1[C@@H](O)[C@@H](O[C@@H]2[C@@H](O)[C@H](O[C@H]3O[C@H]([C@@H](C)O)[C@@H](O)[C@H](O)[C@H]3N)[C@@H](N)C[C@H]2N)OC[C@]1(C)O` [G418], the Kd at APH(2″)-IVa [1] (read-out: Kd) was 27.5 ± 3.3 µM. At APH(2″)-IVa [2], the Kd/Km came out at 12.5, the Michaelis constant (Km) came to 2.2 ± 0.4 µM and the kcat came out at 0.49 ± 0.01 s^− 1. At APH(2″)-IVa [4], this compound registered a kburst of 2.0 ± 1.1 s^− 1, a kss of 0.35 ± 0.04 s^− 1 and an Aburst of 0.34 ± 0.11 mol/mol. At APH(2″)-IVa [5], this compound showed a klag of 1.6 ± 0.1 s^− 1 and a kss of 0.33 ± 0.01 s^− 1.

These data come from paper PMC4769084, “Aminoglycoside binding and catalysis specificity of aminoglycoside 2″-phosphotransferase IVa: A thermodynamic, structural and kinetic study” (Biochimica et Biophysica Acta, 2016).
